{"source": "the NIST ThermoML archive (doi:10.1016/j.tca.2014.04.018)", "conditions": "Liquid, Calculated from knudsen effusion weight loss", "note": "Values joined by “and” are separate entries in the source; they are usually repeats but may differ in a detail not shown here. Identical values can stand only once. Numbers after ± are expanded uncertainties."}
{"smiles": "CCCc1cc(=O)[nH]c(=S)[nH]1", "note": "[6-propyl-2-thiouracil]", "values": [{"measurement": "vapor or sublimation pressure", "setting": "401.14 K", "result": "0.000103 ± 5e-06 kPa and 0.000101 ± 5e-06 kPa and 9.7e-05 ± 5e-06 kPa"}, {"measurement": "vapor or sublimation pressure", "setting": "403.18 K", "result": "0.000124 ± 6e-06 kPa and 0.000123 ± 6e-06 kPa and 0.000118 ± 6e-06 kPa"}, {"measurement": "vapor or sublimation pressure", "setting": "405.17 K", "result": "0.000151 ± 8e-06 kPa and 0.000144 ± 7e-06 kPa"}, {"measurement": "vapor or sublimation pressure", "setting": "407.15 K", "result": "0.000196 ± 1e-05 kPa and 0.000185 ± 9e-06 kPa and 0.000178 ± 9e-06 kPa"}, {"measurement": "vapor or sublimation pressure", "setting": "409.17 K", "result": "0.000231 ± 1.2e-05 kPa and 0.000224 ± 1.1e-05 kPa and 0.000216 ± 1.1e-05 kPa"}, {"measurement": "vapor or sublimation pressure", "setting": "411.16 K", "result": "0.000274 ± 1.4e-05 kPa and 0.000265 ± 1.3e-05 kPa"}, {"measurement": "vapor or sublimation pressure", "setting": "413.15 K", "result": "0.000332 ± 1.7e-05 kPa and 0.000325 ± 1.6e-05 kPa and 0.000317 ± 1.6e-05 kPa"}, {"measurement": "vapor or sublimation pressure", "setting": "415.17 K", "result": "0.00041 ± 2.1e-05 kPa and 0.000398 ± 2e-05 kPa and 0.000382 ± 1.9e-05 kPa"}, {"measurement": "vapor or sublimation pressure", "setting": "417.18 K", "result": "0.000484 ± 2.4e-05 kPa and 0.000485 ± 2.4e-05 kPa and 0.000468 ± 2.3e-05 kPa"}, {"measurement": "vapor or sublimation pressure", "setting": "419.15 K", "result": "0.000583 ± 2.9e-05 kPa and 0.000558 ± 2.8e-05 kPa"}, {"measurement": "vapor or sublimation pressure", "setting": "421.22 K", "result": "0.000714 ± 3.6e-05 kPa and 0.000706 ± 3.5e-05 kPa and 0.00068 ± 3.4e-05 kPa"}, {"measurement": "vapor or sublimation pressure", "setting": "423.21 K", "result": "0.000853 ± 4.3e-05 kPa and 0.000839 ± 4.2e-05 kPa and 0.00083 ± 4.2e-05 kPa"}]}
